Test results taken from PubChem BioAssay AID256 (DTP/NCI, 2004).
Several values for one entry are separate records, joined by “and”; a condition that tells them apart may be missing. Equal entries are not always repeated. Toxic doses and inconclusive results are not listed.

Tested on: CD2F1 mice, L1210 leukemia ip, survival T/C
Assay: NCI In Vivo Anticancer Drug Screen. Data for tumor model L1210 Leukemia (intraperitoneal) in CD2F1 (CDF1) mice
Conditions: higher = longer survival
Outline: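 Ratio T/C, where T is the treated-group value and C the vehicle-dosed control value, from mice implanted with a transplantable tumor.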

[1] = endpoint: mean survival time, dose: 100.0 mg/kg/injection, schedule: Q01DX001 (ip), vehicle: saline with Tween-80
[2] = endpoint: mean survival time, dose: 200.0 mg/kg/injection, schedule: Q01DX001 (ip), vehicle: saline with Tween-80
[3] = endpoint: mean survival time, dose: 100.0 mg/kg/injection, schedule: Q04DX003 (ip), vehicle: saline with Tween-80
[4] = endpoint: mean survival time, dose: 100.0 mg/kg/injection, schedule: Q01DX009 (ip), vehicle: saline with Tween-80
[5] = endpoint: mean survival time, dose: 200.0 mg/kg/injection, schedule: Q01DX009 (ip), vehicle: saline with Tween-80
[6] = endpoint: mean survival time, dose: 400.0 mg/kg/injection, schedule: Q01DX009 (ip), vehicle: saline with Tween-80

Compound: CCOC12c3c4cccc3Oc3cccc(c31)S(=O)(=O)c1cccc(c12)O4
- T/C [1]: 89 % of control
- T/C [2]: 89 % of control

Compound: C/C(=N\O)c1ccc2c3c(ccc([N+](=O)[O-])c13)CC2
- T/C [3]: 98 % of control
- T/C (endpoint: mean survival time, dose: 200.0 mg/kg/injection, schedule: Q04DX003 (ip), vehicle: saline with Tween-80): 98 % of control
- T/C (endpoint: mean survival time, dose: 400.0 mg/kg/injection, schedule: Q04DX003 (ip), vehicle: saline with Tween-80): 103 % of control

Compound: NNC(=O)c1cccc(N)c1
- T/C (endpoint: mean survival time, dose: 25.0 mg/kg/injection, schedule: Q01DX009 (ip), vehicle: saline sonified): 98 % of control
- T/C (endpoint: mean survival time, dose: 50.0 mg/kg/injection, schedule: Q01DX009 (ip), vehicle: saline sonified): 102 % of control
- T/C (endpoint: mean survival time, dose: 100.0 mg/kg/injection, schedule: Q01DX009 (ip), vehicle: saline sonified): 102 % of control
- T/C [3]: 104 % of control

Compound: Cc1cccc(C)c1Nc1n[nH]c(=S)s1
- T/C (endpoint: mean survival time, dose: 100.0 mg/kg/injection, schedule: Q01DX001 (ip), vehicle: Klucel (hydroxypropylcellulose) (HPC)): 97 % of control
- T/C (endpoint: mean survival time, dose: 200.0 mg/kg/injection, schedule: Q01DX001 (ip), vehicle: Klucel (hydroxypropylcellulose) (HPC)): 101 % of control
- T/C (endpoint: mean survival time, dose: 400.0 mg/kg/injection, schedule: Q01DX001 (ip), vehicle: Klucel (hydroxypropylcellulose) (HPC)): 101 % of control

Compound: COC(=O)C(CCC1CCCCC1)CC1CCCCC1 (configuration not stated)
- T/C (endpoint: mean survival time, dose: 100.0 mg/kg/injection, schedule: Q04DX003 (ip), vehicle: acetone): 108 % of control
- T/C (endpoint: mean survival time, dose: 200.0 mg/kg/injection, schedule: Q04DX003 (ip), vehicle: acetone): 102 % of control
- T/C (endpoint: mean survival time, dose: 400.0 mg/kg/injection, schedule: Q04DX003 (ip), vehicle: acetone): 108 % of control

Compound: CN(C)C(=O)C1C2CCCC(CC2)C1C(=O)N(C)C (configuration not stated)
- T/C (endpoint: mean survival time, dose: 100.0 mg/kg/injection, schedule: Q04DX002 (ip), vehicle: saline): 100 % of control
- T/C (endpoint: mean survival time, dose: 200.0 mg/kg/injection, schedule: Q04DX002 (ip), vehicle: saline): 91 % of control
- T/C (endpoint: mean survival time, dose: 400.0 mg/kg/injection, schedule: Q04DX002 (ip), vehicle: saline): 95 % of control

Compound: O=C(O)C1C2CC3OC(=O)C1C3C2O (configuration not stated)
- T/C [4]: 91 % of control
- T/C [5]: 93 % of control
- T/C [6]: 96 % of control

Compound: O=C[c-]1[c-][c-][c-][c-]1.[Fe+2].[c-]1[c-][c-][cH-][c-]1
- T/C [1]: 117 % of control
- T/C [2]: 100 % of control

Compound: COC(=O)C1(C)CCCC2(C)C1CCC13OC1C1(C(C)C)OC1CC23 (configuration not stated)
- T/C [4]: 98 % of control
- T/C [5]: 104 % of control
- T/C [6]: 98 % of control

Compound: CC([NH-])CC[NH-].O=[N+]([O-])O.O=[N+]([O-])O.[Pt+2] (configuration not stated)
- T/C (endpoint: mean survival time, dose: 6.25 mg/kg/injection, schedule: Q04DX003 (ip), vehicle: saline with Tween-80): 169 % of control

Compound: CC1=C(C)CS(=O)(=O)N(c2ccccc2)C1
- T/C [1]: 101 % of control
- T/C [4]: 98 % of control
- T/C [2]: 98 % of control
- T/C [5]: 95 % of control
- T/C (endpoint: mean survival time, dose: 400.0 mg/kg/injection, schedule: Q01DX001 (ip), vehicle: saline with Tween-80): 86 % of control
- T/C [6]: 95 % of control

Compound: OCc1cc(Cl)cc(Cl)c1OCc1ccccc1
- T/C (endpoint: mean survival time, dose: 100.0 mg/kg/injection, schedule: Q04DX002 (ip), vehicle: other): 101 % of control
- T/C (endpoint: mean survival time, dose: 200.0 mg/kg/injection, schedule: Q04DX002 (ip), vehicle: other): 101 % of control
- T/C (endpoint: mean survival time, dose: 400.0 mg/kg/injection, schedule: Q04DX002 (ip), vehicle: other): 101 % of control

Compound: CC1(C)CC(NC(=O)CSc2ncnc3nc[nH]c23)CC(C)(C)N1O
- T/C (endpoint: mean survival time, dose: 12.5 mg/kg/injection, schedule: Q01DX005 (ip), vehicle: saline): 106 % of control
- T/C (endpoint: mean survival time, dose: 25.0 mg/kg/injection, schedule: Q01DX005 (ip), vehicle: saline): 98 % of control
- T/C (endpoint: mean survival time, dose: 50.0 mg/kg/injection, schedule: Q01DX005 (ip), vehicle: saline): 98 % of control
- T/C (endpoint: mean survival time, dose: 100.0 mg/kg/injection, schedule: Q01DX005 (ip), vehicle: saline): 98 % of control
- T/C (endpoint: mean survival time, dose: 200.0 mg/kg/injection, schedule: Q01DX005 (ip), vehicle: saline): 98 % of control

Compound: Cc1c([O-])[n+](Cc2ccccc2)nn1C
- T/C (endpoint: mean survival time, dose: 12.5 mg/kg/injection, schedule: Q01DX009 (ip), vehicle: water): 97 % of control
- T/C (endpoint: mean survival time, dose: 25.0 mg/kg/injection, schedule: Q01DX009 (ip), vehicle: water): 98 % of control
- T/C (endpoint: mean survival time, dose: 50.0 mg/kg/injection, schedule: Q01DX009 (ip), vehicle: water): 95 % of control
- T/C (endpoint: mean survival time, dose: 100.0 mg/kg/injection, schedule: Q01DX009 (ip), vehicle: water): 97 % of control
- T/C (endpoint: mean survival time, dose: 200.0 mg/kg/injection, schedule: Q01DX009 (ip), vehicle: water): 93 % of control

Compound: CCOC(=O)C(CC(C)C)NC(=O)C(N)Cc1ccc(N(CCCl)CCCl)cc1 (configuration not stated)
- T/C (endpoint: mean survival time, dose: 1.25 mg/kg/injection, schedule: Q01DX009 (ip), vehicle: water): 106 % of control
- T/C (endpoint: mean survival time, dose: 2.5 mg/kg/injection, schedule: Q01DX009 (ip), vehicle: water): 115 % of control and 119 % of control
- T/C (endpoint: mean survival time, dose: 10.0 mg/kg/injection, schedule: Q01DX009 (ip), vehicle: water): 169 % of control
- T/C (endpoint: mean survival time, dose: 20.0 mg/kg/injection, schedule: Q01DX009 (ip), vehicle: water): 114 % of control
- T/C (endpoint: median survival time, dose: 3.6 mg/kg/injection, schedule: Q01DX009 (ip), vehicle: water): 118 % of control
- T/C (endpoint: median survival time, dose: 16.67 mg/kg/injection, schedule: Q01DX009 (ip), vehicle: water): 175 % of control
- T/C (endpoint: median survival time, dose: 27.78 mg/kg/injection, schedule: Q01DX009 (ip), vehicle: water): 118 % of control

Compound: CN(C)N=Nc1ccccc1
- T/C (endpoint: mean survival time, dose: 37.5 mg/kg/injection, schedule: Q01DX009 (ip), vehicle: Klucel (hydroxypropylcellulose) (HPC)): 158 % of control
- T/C (endpoint: mean survival time, dose: 75.0 mg/kg/injection, schedule: Q01DX009 (ip), vehicle: Klucel (hydroxypropylcellulose) (HPC)): 106 % of control

Compound: O=[N+]([O-])c1ccc(C[P+](c2ccccc2)(c2ccccc2)c2ccccc2)cc1
- T/C (endpoint: mean survival time, dose: 6.25 mg/kg/injection, schedule: Q04DX002 (ip), vehicle: saline with Tween-80): 86 % of control
- T/C (endpoint: mean survival time, dose: 12.5 mg/kg/injection, schedule: Q04DX002 (ip), vehicle: saline with Tween-80): 108 % of control
- T/C (endpoint: mean survival time, dose: 25.0 mg/kg/injection, schedule: Q04DX002 (ip), vehicle: saline with Tween-80): 94 % of control

Compound: CN(C)N=Nc1ccccc1-c1nc(N)c2ccccc2n1
- T/C (endpoint: mean survival time, dose: 6.25 mg/kg/injection, schedule: Q01DX005 (ip), vehicle: water): 103 % of control
- T/C (endpoint: mean survival time, dose: 12.5 mg/kg/injection, schedule: Q01DX005 (ip), vehicle: water): 88 % of control
- T/C (endpoint: mean survival time, dose: 25.0 mg/kg/injection, schedule: Q01DX005 (ip), vehicle: water): 109 % of control
- T/C (endpoint: mean survival time, dose: 50.0 mg/kg/injection, schedule: Q01DX005 (ip), vehicle: water): 117 % of control
- T/C (endpoint: mean survival time, dose: 100.0 mg/kg/injection, schedule: Q01DX005 (ip), vehicle: water): 98 % of control

Compound: N#C/C(C(=S)S)=C(/O)c1ccccc1
- T/C (endpoint: mean survival time, dose: 25.0 mg/kg/injection, schedule: Q01DX009 (ip), vehicle: saline with Tween-80): 102 % of control
- T/C (endpoint: mean survival time, dose: 50.0 mg/kg/injection, schedule: Q01DX009 (ip), vehicle: saline with Tween-80): 101 % of control
- T/C [4]: 102 % of control
- T/C [3]: 94 % of control
